Experimental findings from PubChem BioAssay (NCI) are described below.

Structures are written as SMILES.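 Cultured in 96-well plates, cells were exposed to test compound for 48 hours across five concentrations. GI50 = concentration required for 50% inhibition of growth. TGI is the concentration that stops growth completely.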 Bounds are passed on as bounds.

The first assay concerns RXF 393 renal. Description: NCI anticancer screen, dose series, 48 h.
Regarding `COc1cc(OC)cc(-c2ccc(-c3ccc(C(=N)N)o3)o2)c1`, the GI50 was 1.93 µM and the TGI stood at 5.24 µM.

In the case of `C[C@]12CC[C@H](O)CC1=CC[C@@H]1[C@@H]2CC[C@]2(C)C(c3cccnc3)=CC[C@@H]12`, the GI50 is 3.32 µM and the TGI turned out to be 19 µM.

`CC1OC(n2cc(F)c(=O)[nH]c2=O)CCC1O` (stereo not given) had a TGI greater than 100 µM.

`O=C(NCCOCCOCCNc1cccc2c1C(=O)N(C1CCCNC1=O)C2=O)c1cc2c(o1)C(=O)c1ccccc1C2=O` (stereo not given): the GI50 was 1.8 µM and the TGI was 3.99 µM.

In the case of `O=C(CN1CCOCC1)Nc1ccc(Cn2nnc3c2C(=O)c2nnn(Cc4ccc(NC(=O)CN5CCOCC5)cc4)c2C3=O)cc1`, the GI50 was 1.34 µM and the TGI came to 2.92 µM.

As to `O=C(c1ccco1)c1nc2ccc(C(F)(F)F)cc2[n+]([O-])c1C(F)(F)F`, the GI50 was 22.2 µM and the TGI turned out to be 80 µM.

Turning to `CCCCC/C(C=C(C#N)C#N)=C/c1ccccc1`, the GI50 was 5.82 µM and the TGI came to 22.3 µM.

In turn, `CC1CCC2(C(=O)O)CCC3(C)C(=CCC4C5(C)CC(O)C(O)C(C)(CO)C5C(O)CC43C)C2C1C` (stereo not given) had a TGI greater than 64.1 µM.

`COc1cnc2cc(C(=O)O)c3c([N+](=O)[O-])cccc3c2c1`: the TGI was greater than 100 µM.

`COc1ccc(C2=NN(C(=O)c3cc(OC)c(OC)c(OC)c3)C(c3ccc(C#N)cc3)C2)cc1OC` (stereo not given): the GI50 is 0.541 µM and the TGI is 4.69 µM.

Turning to `CCOc1cccc(/C=N/NC(=O)c2ccccc2Nc2ccnc(C(F)(F)F)c2)c1O`, the GI50 is 11.5 µM and the TGI is greater than 100 µM.

For `CC1=C(C(=O)Nc2ccc3[nH]ncc3c2)C(c2ccc3ccccc3c2)CC(=O)N1` (stereo not given), the GI50 is 4.11 µM and the TGI is greater than 23.8 µM.

The test system of another assay is SF-268 CNS. Description: NCI anticancer screen, dose series, 48 h.
On to `COc1cc(OC)cc(-c2ccc(-c3ccc(C(=N)N)o3)o2)c1`, for which the GI50 is 3.4 µM and the TGI was 13.2 µM.

Consider `C[C@]12CC[C@H](O)CC1=CC[C@@H]1[C@@H]2CC[C@]2(C)C(c3cccnc3)=CC[C@@H]12`, for which the GI50 is 15.7 µM and the TGI was greater than 100 µM.

For the compound `CC1OC(n2cc(F)c(=O)[nH]c2=O)CCC1O` (stereo not given), the TGI is greater than 100 µM.

For the compound `O=C(NCCOCCOCCNc1cccc2c1C(=O)N(C1CCCNC1=O)C2=O)c1cc2c(o1)C(=O)c1ccccc1C2=O` (stereo not given), the GI50 was 2.39 µM and the TGI turned out to be 6.35 µM.

Regarding `O=C(CN1CCOCC1)Nc1ccc(Cn2nnc3c2C(=O)c2nnn(Cc4ccc(NC(=O)CN5CCOCC5)cc4)c2C3=O)cc1`, the GI50 was 0.334 µM and the TGI came to 1.94 µM.

On to `O=C(c1ccco1)c1nc2ccc(C(F)(F)F)cc2[n+]([O-])c1C(F)(F)F`, for which the GI50 was 34.3 µM and the TGI is greater than 100 µM.

For `CCCCC/C(C=C(C#N)C#N)=C/c1ccccc1`, the GI50 was 2.45 µM and the TGI was 9.51 µM.

With `CC1CCC2(C(=O)O)CCC3(C)C(=CCC4C5(C)CC(O)C(O)C(C)(CO)C5C(O)CC43C)C2C1C` (stereo not given), the TGI is greater than 87.2 µM.

Turning to `COc1cnc2cc(C(=O)O)c3c([N+](=O)[O-])cccc3c2c1`, the TGI is greater than 100 µM.

Turning to `COc1ccc(C2=NN(C(=O)c3cc(OC)c(OC)c(OC)c3)C(c3ccc(C#N)cc3)C2)cc1OC` (stereo not given), the GI50 is 2.52 µM and the TGI was greater than 66.6 µM.

As to `CCOc1cccc(/C=N/NC(=O)c2ccccc2Nc2ccnc(C(F)(F)F)c2)c1O`, the GI50 is 0.599 µM and the TGI was greater than 100 µM.

For `CC1=C(C(=O)Nc2ccc3[nH]ncc3c2)C(c2ccc3ccccc3c2)CC(=O)N1` (stereo not given), the GI50 was 11.5 µM and the TGI is greater than 25 µM.

The next assay deals with SK-MEL-2 melanoma. Description: NCI anticancer screen, dose series, 48 h.
As for `COc1cc(OC)cc(-c2ccc(-c3ccc(C(=N)N)o3)o2)c1`, the GI50 is 2.44 µM and the TGI was found to be 5.35 µM.

For `C[C@]12CC[C@H](O)CC1=CC[C@@H]1[C@@H]2CC[C@]2(C)C(c3cccnc3)=CC[C@@H]12`, the GI50 was 34.5 µM and the TGI was greater than 100 µM.

The compound `CC1OC(n2cc(F)c(=O)[nH]c2=O)CCC1O` (stereo not given) had a TGI greater than 100 µM.

As to `O=C(NCCOCCOCCNc1cccc2c1C(=O)N(C1CCCNC1=O)C2=O)c1cc2c(o1)C(=O)c1ccccc1C2=O` (stereo not given), the GI50 was 2.11 µM and the TGI amounted to 6.1 µM.

On to `O=C(CN1CCOCC1)Nc1ccc(Cn2nnc3c2C(=O)c2nnn(Cc4ccc(NC(=O)CN5CCOCC5)cc4)c2C3=O)cc1`, for which the GI50 is 0.438 µM and the TGI turned out to be 1.72 µM.

For `O=C(c1ccco1)c1nc2ccc(C(F)(F)F)cc2[n+]([O-])c1C(F)(F)F`, the GI50 was 87.7 µM and the TGI is greater than 100 µM.

For `CCCCC/C(C=C(C#N)C#N)=C/c1ccccc1`, the GI50 is 17.4 µM and the TGI turned out to be 41.3 µM.

Turning to `CC1CCC2(C(=O)O)CCC3(C)C(=CCC4C5(C)CC(O)C(O)C(C)(CO)C5C(O)CC43C)C2C1C` (stereo not given), the TGI was determined as 36.6 µM.

For `COc1cnc2cc(C(=O)O)c3c([N+](=O)[O-])cccc3c2c1`, the TGI is greater than 100 µM.

Regarding `COc1ccc(C2=NN(C(=O)c3cc(OC)c(OC)c(OC)c3)C(c3ccc(C#N)cc3)C2)cc1OC` (stereo not given), the GI50 was 1.58 µM and the TGI is greater than 20.3 µM.

On to `CCOc1cccc(/C=N/NC(=O)c2ccccc2Nc2ccnc(C(F)(F)F)c2)c1O`, for which the GI50 was 3.4 µM and the TGI is greater than 50.4 µM.

Consider `CC1=C(C(=O)Nc2ccc3[nH]ncc3c2)C(c2ccc3ccccc3c2)CC(=O)N1` (stereo not given), for which the GI50 is greater than 25 µM and the TGI was greater than 25 µM.

The test system of the next assay is SN12C renal. As to the kind of experiment: NCI anticancer screen, dose series, 48 h.
As for `COc1cc(OC)cc(-c2ccc(-c3ccc(C(=N)N)o3)o2)c1`, the GI50 is 2.38 µM and the TGI stood at 5.15 µM.

Consider `C[C@]12CC[C@H](O)CC1=CC[C@@H]1[C@@H]2CC[C@]2(C)C(c3cccnc3)=CC[C@@H]12`, for which the GI50 was greater than 100 µM and the TGI is greater than 100 µM.

Compound `CC1OC(n2cc(F)c(=O)[nH]c2=O)CCC1O` (stereo not given) showed a TGI greater than 100 µM.

Consider `O=C(NCCOCCOCCNc1cccc2c1C(=O)N(C1CCCNC1=O)C2=O)c1cc2c(o1)C(=O)c1ccccc1C2=O` (stereo not given), for which the GI50 is 1.52 µM and the TGI was 2.96 µM.

For the compound `O=C(CN1CCOCC1)Nc1ccc(Cn2nnc3c2C(=O)c2nnn(Cc4ccc(NC(=O)CN5CCOCC5)cc4)c2C3=O)cc1`, the GI50 is 0.259 µM and the TGI was determined as 0.733 µM.

For `O=C(c1ccco1)c1nc2ccc(C(F)(F)F)cc2[n+]([O-])c1C(F)(F)F`, the GI50 is greater than 100 µM and the TGI was greater than 100 µM.

For the compound `CCCCC/C(C=C(C#N)C#N)=C/c1ccccc1`, the GI50 is 3.74 µM and the TGI came out at 16.9 µM.

In turn, `CC1CCC2(C(=O)O)CCC3(C)C(=CCC4C5(C)CC(O)C(O)C(C)(CO)C5C(O)CC43C)C2C1C` (stereo not given) came in with a TGI of 25.8 µM.

On to `COc1cnc2cc(C(=O)O)c3c([N+](=O)[O-])cccc3c2c1`, for which the TGI was greater than 100 µM.

`COc1ccc(C2=NN(C(=O)c3cc(OC)c(OC)c(OC)c3)C(c3ccc(C#N)cc3)C2)cc1OC` (stereo not given): the GI50 is 4.47 µM and the TGI was greater than 100 µM.

For `CCOc1cccc(/C=N/NC(=O)c2ccccc2Nc2ccnc(C(F)(F)F)c2)c1O`, the GI50 was 0.989 µM and the TGI was greater than 94.9 µM.

As to `CC1=C(C(=O)Nc2ccc3[nH]ncc3c2)C(c2ccc3ccccc3c2)CC(=O)N1` (stereo not given), the GI50 was greater than 25 µM and the TGI was greater than 25 µM.

In the next assay the test system is U251 CNS. Description: NCI anticancer screen, dose series, 48 h.
For `COc1cc(OC)cc(-c2ccc(-c3ccc(C(=N)N)o3)o2)c1`, the GI50 is 2.45 µM and the TGI amounted to 5.91 µM.

For the compound `C[C@]12CC[C@H](O)CC1=CC[C@@H]1[C@@H]2CC[C@]2(C)C(c3cccnc3)=CC[C@@H]12`, the GI50 is 12.3 µM and the TGI is greater than 100 µM.

On to `CC1OC(n2cc(F)c(=O)[nH]c2=O)CCC1O` (stereo not given), for which the TGI is greater than 100 µM.

Take `O=C(NCCOCCOCCNc1cccc2c1C(=O)N(C1CCCNC1=O)C2=O)c1cc2c(o1)C(=O)c1ccccc1C2=O` (stereo not given): the GI50 is 1.9 µM and the TGI turned out to be 3.9 µM.

For `O=C(CN1CCOCC1)Nc1ccc(Cn2nnc3c2C(=O)c2nnn(Cc4ccc(NC(=O)CN5CCOCC5)cc4)c2C3=O)cc1`, the GI50 is 0.305 µM and the TGI was determined as 0.942 µM.

With `O=C(c1ccco1)c1nc2ccc(C(F)(F)F)cc2[n+]([O-])c1C(F)(F)F`, the GI50 was 52.6 µM and the TGI was greater than 100 µM.

Regarding `CCCCC/C(C=C(C#N)C#N)=C/c1ccccc1`, the GI50 is 3.03 µM and the TGI was found to be 14.1 µM.

Compound `CC1CCC2(C(=O)O)CCC3(C)C(=CCC4C5(C)CC(O)C(O)C(C)(CO)C5C(O)CC43C)C2C1C` (stereo not given) yielded a TGI of 45.5 µM.

For `COc1cnc2cc(C(=O)O)c3c([N+](=O)[O-])cccc3c2c1`, the TGI was greater than 100 µM.

Take `COc1ccc(C2=NN(C(=O)c3cc(OC)c(OC)c(OC)c3)C(c3ccc(C#N)cc3)C2)cc1OC` (stereo not given): the GI50 was 1.18 µM and the TGI is greater than 34.6 µM.

With `CCOc1cccc(/C=N/NC(=O)c2ccccc2Nc2ccnc(C(F)(F)F)c2)c1O`, the GI50 was 0.375 µM and the TGI is greater than 100 µM.

In the case of `CC1=C(C(=O)Nc2ccc3[nH]ncc3c2)C(c2ccc3ccccc3c2)CC(=O)N1` (stereo not given), the GI50 was greater than 25 µM and the TGI is greater than 25 µM.
